Assay results taken from PubChem BioAssay AID2060601 (Molecular Pharmacology Branch, DTP, NCI, 2025).

Tested on: 874868-142-R-J2-PDC complex spheroids, growth % test/control
Experiment: Anticancer human tumor 874868-142-R-J2-PDC patient-derived head and neck squamous carcinoma cell line growth inhibition [CLK]
Conditions: for IC50: curve of first compound; for viability, T/C: stronger effect = lower value; active = viability on the fitted dose curve at most 10% of control; inactive = the rest
Description: A high-throughput screen of multi-cell type tumor spheroids was designed to identify active combinations of […] and targeted small molecules. Complex spheroids include a stromal component modeled by human endothelial cells (HUVEC) and fibroblasts modeled by human mesenchymal stem cells (MSCs). The concentration ranges selected for each drug and investigational agent were based upon clinically achievable concentrations if the clinical Cmax of the agent was known.
Compounds. The drugs and investigational agents: cirtuvivint (SM08502; NSC835563), CC-671 (NSC850746), vemurafenib (NSC761431), tapotoclax (NSC804041), sotorasib (NSC818433), adagrasib (NSC831453), MRTX-1133 (NSC836407), BAY2416964 (NSC825713), copanlisib (NSC816437), inavolisib (NSC800729), abemaciclib (NSC768073), osimertinib (NSC779217), entinostat (NSC756642), eltanexor (KPT-8602, NSC794443), venetoclax (NSC766270), ceralasertib (NSC777638), bortezomib (NSC756655), olaparib (NSC753686), talazoparib (NSC767125), alisertib (NSC759677), peposertib (NSC802822), gemcitabine (NSC613327), 5-fluorouracil (NSC19893), SN-38 (NSC673596), oxaliplatin (NSC266046), paclitaxel (NSC125973), and doxorubicin (NSC123127), were obtained from the National Cancer Institute (NCI) Developmental Therapeutics Program Chemical Repository. The FDA-approved anticancer drug set is available from the Developmental Therapeutics Program at https://dtp.cancer.gov/organization/dscb/obtaining/available plates.htm. […] The stock solutions were prepared in dimethyl sulfoxide (DMSO, Sigma-Aldrich, St. Louis, MO, cat. D2650), except for the platinum complexes which were prepared in saline (Quality Biological, Gaithersburg, MD, cat. 114-055-101), at 800-fold the tested concentration and stored at -70 degrees C prior to their use. All drugs and investigational agents were tested over a range starting from a high concentration at or near the clinical Cmax and decreasing in half-log increments. If the clinical Cmax for an agent had not been determined, the highest concentration tested was 10 microM.
Cell Culture. All cells were maintained in an incubator at 37 degrees C and 5% CO2 with 95% humidity. The PDC lines were cultured according to standard operating procedures established by the NCI PDMR. Briefly, all PDCs were thawed and cultured in Matrigel-coated flasks prepared with a working solution of 1X Ham's F-12 nutrient mix, without supplementation (Invitrogen, Waltham, MA, cat. 11765054), 100 U/mL penicillin-streptomycin (Invitrogen, cat. 15140122), and 2.5% Matrigel (Corning Inc., Corning, NY, cat. 354248) for the first three passages. The 947758-054-R-J2-PDC line was cultured in 6B/Colon 1A media, which includes advanced DMEM/F-12 (Thermo Fisher Scientific, cat. 12634028), 10 mM HEPES (Thermo Fisher Scientific, cat. 15630080), 1X GlutaMAX supplement (Thermo Fisher Scientific, cat. 35050061), 0.1 mg/mL primocin (InvivoGen, cat. ant-pm-2), 10% defined fetal bovine serum, heat inactivated (HyClone Laboratories Inc., cat. SH30070.03HI), 1.25 mM N-Acetyl-L-cysteine (Sigma-Aldrich, cat. A9165), 10 mM nicotinamide (Sigma-Aldrich, cat. N0636), 1X B-27 supplement (Thermo Fisher Scientific, cat. 17504044), 1X N-2 supplement (Thermo Fisher Scientific, cat. 17502048), and 10 microM Y-27632 dihydrochloride (Tocris Bioscience, cat. 1254). The 876862-298-R-J1-PDC was cultured in 6E media, which includes all 6B/Colon 1A media components plus 50% L-WRN conditioned media (ATCC, cat. CRL-3276), 50 ng/mL recombinant human EGF recombinant protein (hEGF; Thermo Fisher Scientific, cat. PHG0311), 10 ng/mL recombinant human fibroblast growth factor 10 (hGFG-10; PeproTech, cat. 100-26), 1 ng/mL recombinant human fibroblast growth factor 2 (hFGF-2; PeproTech, cat. 100-18B), and 1 µM prostaglandin E2 (PGE2; Tocris, cat. 2296). The 227483-062-R1-J1-PDC line was cultured in Panc media, containing all 6E components except hFGF-2, with the addition of 500 nM SB-431542 (Selleckchem, cat. S1067) and 10 nM gastrin (Tocris, cat. 3006). […]
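Note: spheroids exposed to the compounds for 7 days.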

C=CC(=O)Nc1cc(Nc2nccc(-c3cn(C)c4ccccc34)n2)c(OC)cc1N(C)CCN(C)C + CN1CCN(c2cc(C(=O)Nc3cc4cc(-c5cnn(C)c5)ccc4cn3)ccn2)CC1
< 0.949 nM: IC50 (second compound 0.316 µM) | IC50 (second compound 1 µM) | IC50 (second compound 3.16 µM) | IC50 (second compound 10 µM)
51.9 nM: IC50 (second compound 0.0316 µM)
21.9 nM: IC50 (second compound 0.1 µM)
inactive: viability, T/C (second compound 0.0316 µM, first compound 0.000949 µM) 84.1% | viability, T/C (second compound 0.0316 µM, first compound 0.003 µM) 90.5% | viability, T/C (second compound 0.0316 µM, first compound 0.00949 µM) 80.3% | viability, T/C (second compound 0.0316 µM, first compound 0.03 µM) 61.9% | viability, T/C (second compound 0.0316 µM, first compound 0.0949 µM) 37.1% | viability, T/C (second compound 0.0316 µM, first compound 0.3 µM) 27.3% | viability, T/C (second compound 0.1 µM, first compound 0.000949 µM) 76% | viability, T/C (second compound 0.1 µM, first compound 0.003 µM) 70.6% | viability, T/C (second compound 0.1 µM, first compound 0.00949 µM) 59.1% | viability, T/C (second compound 0.1 µM, first compound 0.03 µM) 49.6% | viability, T/C (second compound 0.1 µM, first compound 0.0949 µM) 26.8% | viability, T/C (second compound 0.1 µM, first compound 0.3 µM) 22% | viability, T/C (second compound 0.316 µM, first compound 0.000949 µM) 19.2% | viability, T/C (second compound 0.316 µM, first compound 0.003 µM) 16.2% | viability, T/C (second compound 0.316 µM, first compound 0.00949 µM) 19.7% | viability, T/C (second compound 0.316 µM, first compound 0.03 µM) 9.31% | viability, T/C (second compound 0.316 µM, first compound 0.0949 µM) 15.2%
active: viability, T/C (second compound 0.316 µM, first compound 0.3 µM) 7.92% | viability, T/C (second compound 1 µM, first compound 0.000949 µM) 0.41% | viability, T/C (second compound 1 µM, first compound 0.003 µM) 0.88% | viability, T/C (second compound 1 µM, first compound 0.00949 µM) 1.96% | viability, T/C (second compound 1 µM, first compound 0.03 µM) 0.37% | viability, T/C (second compound 1 µM, first compound 0.0949 µM) 0.71% | viability, T/C (second compound 1 µM, first compound 0.3 µM) 0.79% | viability, T/C (second compound 3.16 µM, first compound 0.000949 µM) 0.27% | viability, T/C (second compound 3.16 µM, first compound 0.003 µM) 0.34% | viability, T/C (second compound 3.16 µM, first compound 0.00949 µM) 0.26% | viability, T/C (second compound 3.16 µM, first compound 0.03 µM) 0.66% | viability, T/C (second compound 3.16 µM, first compound 0.0949 µM) 4.28% | viability, T/C (second compound 3.16 µM, first compound 0.3 µM) 0.48% | viability, T/C (second compound 10 µM, first compound 0.000949 µM) 7.4% | viability, T/C (second compound 10 µM, first compound 0.003 µM) 0.25% | viability, T/C (second compound 10 µM, first compound 0.00949 µM) 3.1% | viability, T/C (second compound 10 µM, first compound 0.03 µM) 0.21% | viability, T/C (second compound 10 µM, first compound 0.0949 µM) 1.3% | viability, T/C (second compound 10 µM, first compound 0.3 µM) 2.16%

Nc1ccccc1NC(=O)c1ccc(CNC(=O)OCc2cccnc2)cc1 + CN1CCN(c2cc(C(=O)Nc3cc4cc(-c5cnn(C)c5)ccc4cn3)ccn2)CC1
4500 nM: IC50 (second compound 0.1 µM)
inactive: viability, T/C (second compound 0.0316 µM, first compound 0.0316 µM) 86.7% | viability, T/C (second compound 0.0316 µM, first compound 0.1 µM) 79.6% | viability, T/C (second compound 0.0316 µM, first compound 0.316 µM) 88.7% | viability, T/C (second compound 0.0316 µM, first compound 1 µM) 116% | viability, T/C (second compound 0.0316 µM, first compound 3.16 µM) 94.5% | viability, T/C (second compound 0.0316 µM, first compound 10 µM) 35.2% | viability, T/C (second compound 0.1 µM, first compound 0.0316 µM) 73.2% | viability, T/C (second compound 0.1 µM, first compound 0.1 µM) 67.8% | viability, T/C (second compound 0.1 µM, first compound 0.316 µM) 72.5% | viability, T/C (second compound 0.1 µM, first compound 1 µM) 102% | viability, T/C (second compound 0.1 µM, first compound 3.16 µM) 62.8% | viability, T/C (second compound 0.1 µM, first compound 10 µM) 21.2% | viability, T/C (second compound 0.316 µM, first compound 0.0316 µM) 13.4% | viability, T/C (second compound 0.316 µM, first compound 0.1 µM) 15.8% | viability, T/C (second compound 0.316 µM, first compound 0.316 µM) 15.8% | viability, T/C (second compound 0.316 µM, first compound 1 µM) 17.9%
< 31.6 nM: IC50 (second compound 0.316 µM) | IC50 (second compound 1 µM) | IC50 (second compound 3.16 µM) | IC50 (second compound 10 µM)
7470 nM: IC50 (second compound 0.0316 µM)
active: viability, T/C (second compound 0.316 µM, first compound 3.16 µM) 7.51% | viability, T/C (second compound 0.316 µM, first compound 10 µM) 0.19% | viability, T/C (second compound 1 µM, first compound 0.0316 µM) 0.32% | viability, T/C (second compound 1 µM, first compound 0.1 µM) 6.56% | viability, T/C (second compound 1 µM, first compound 0.316 µM) 0.28% | viability, T/C (second compound 1 µM, first compound 1 µM) 0.17% | viability, T/C (second compound 1 µM, first compound 3.16 µM) 0.12% | viability, T/C (second compound 1 µM, first compound 10 µM) 2.14% | viability, T/C (second compound 3.16 µM, first compound 0.0316 µM) 0.23% | viability, T/C (second compound 3.16 µM, first compound 0.1 µM) 0.27% | viability, T/C (second compound 3.16 µM, first compound 0.316 µM) 0.18% | viability, T/C (second compound 3.16 µM, first compound 1 µM) 0.2% | viability, T/C (second compound 3.16 µM, first compound 3.16 µM) 0.27% | viability, T/C (second compound 3.16 µM, first compound 10 µM) 0.26% | viability, T/C (second compound 10 µM, first compound 0.0316 µM) 0.1% | viability, T/C (second compound 10 µM, first compound 0.1 µM) 0.32% | viability, T/C (second compound 10 µM, first compound 0.316 µM) 0.16% | viability, T/C (second compound 10 µM, first compound 1 µM) 0.14% | viability, T/C (second compound 10 µM, first compound 3.16 µM) 0.18% | viability, T/C (second compound 10 µM, first compound 10 µM) 2.46%
